# Source: US20090181931A1, “ANTIVIRAL ACTIVITY OF CIDOFOVIR AGAINST ONCOLYTIC VIRUSES” (priority 2008, published 2009)
# Where “and” joins values, the source holds several entries; their conditions need not be identical. Equal entries are not always repeated.
# Columns and labels:
# TelomeScan (OBP-401) = assay: Real-time quantitative PCR, viral E1A copy number, TelomeScan in H1299 cells; format: cell-based, adenovirus; details: for E1A copy number, % (relative to 0 uM) / E1A copy number/ng DNA: TelomeScan MOI 10, H1299, 24 hours
# Method: (§1) Cells were seeded in 6-well plate (2 mL/well, 2×10^5 cells/well), and incubated with 5% CO2 at 37° C.
# (§2) Viruses were diluted at a MOI of 10. Medium in each well was removed, 500 μL of diluted virus solution was added to each well of the plate. Plates were incubated with 5% CO2 at 37° C. for 2 hours with gently shaking every 15 minutes. Medium was aspirated, washed with PBS twice, and replaced with fresh medium containing 2% FCS and serially diluted CDV. Cells were incubated with 5% CO2 at 37° C. for 24 hours after infection.
# (§3) Cells were detached with Trypsin-EDTA, and collected by centrifuging. Total DNA was extracted using QIAamp™ DNA Mini Kit according to manufacture's instructions with some modifications: addition of 20 μL of RNaseA in each sample when adding ProK. DNA was eluted by 50˜100 μL of D. W.
# (§4) Concentration of DNA was determined by measuring O.D.260. Each DNA samples was diluted by D. W. at a concentration of 5 ng/μL.
# (§5) Master-mix for E1A primer was prepared using LightCycler™ Faststart DNAMaster SYBR Green™ according to Table 1. Standard DNA was prepared by serially 10 times dilution of pCRII-E1A plasmid (1×10^9, 1×10^8, 1×10^7, 1×10^6, 1×10^5, 1×10^4, and 1×10^3 copies/μL). 2 μL of Sample or Standard DNA was and 18 μL of Master mix were added into capillaries (total volume was 20 μL per capillary).
# (§6) Q-PCR was performed according to the program of Table 2 (LightCycler quicksystem 350S). Results obtained here were analyzed using LightCycler softwere.
# H1299 cells = assay: XTT cell viability assay, CDV alone, H1299 cells; format: cell-based; details: for Relative cell viability Ave. / Relative cell viability: H1299, no virus, 7 days; for Relative cell viability: single wells, dihydrate
# Method: Cells frozen in liquid nitrogen were thawed in water bath at 37° C., seeded at T25 flask, and cultured at 70-90% sub-confluent monolayer. Cells were detached with trypsin, and prepared suspension at a concentration of 1.0×10^4 cells/ml.
# Cells were seeded in 96 well-plate (100 μL/well, 1000 cells/well), then cultured with 5% CO2 at 37° C.
# (§7) Viruses were diluted at MOI of 1 (OBP-301, OBP-202) in H1299 and 5 in A549 (PFU/cell). Medium in each well was removed, 150 μL of diluted virus solution was added to each well of the plate. 2 hours later, medium was aspirated and replaced with fresh medium containing 2% FCS and serially diluted CDV. Cells were incubated with 5% CO2 at 37° C. for 7 days after infection.
# as §7, with “0.1 (OBP-401) or 10 (ONYX-015)” for “1 (OBP-301, OBP-202)”, “H1299.” for “H1299 and 5 in A549 (PFU/cell).”, “50” for “150”
# 100 μL of PBS, 50 μL of XTT labeling reagent, and 1 μL of ion coupling reagent per well of plate were mixed.
# Medium in each well of plate was removed, and 150 μL of mixture prepared above was added to each well. Plate was incubated with 5% CO2 at 37° C. for 4 hours, and then calculated absorbance at 450 nm and 690 nm. Protection was determined by the formula below: […]
# [1] = tested on: Wild-type adenovirus (OBP-202); assay: Real-time quantitative PCR, viral E1A copy number, wild-type adenovirus in H1299 cells; format: cell-based; details: for E1A copy number, % (relative to 0 μM) / E1A copy number/ng DNA: Wt-Ad MOI 10, H1299, 24 hours
# Method: as §1, §2, §3, §4, §5, §6
smiles,measurement,setting,value
"Nc1ccn(C[C@@H](CO)OCP(=O)(O)O)c(=O)n1.O.O [CDV, 1-[(S)-3-hydroxy-2-(phosphonomethoxy)propyl]cytosine dihydrate]","E1A copy number, % (relative to 0 uM)",TelomeScan (OBP-401); CDV 0.16 uM,103.48%
same,E1A copy number/ng DNA,TelomeScan (OBP-401); CDV 0.16 uM,2.350E+08 copy number/ng DNA
same,"E1A copy number, % (relative to 0 uM)",TelomeScan (OBP-401); CDV 0.8 uM,83.22%
same,E1A copy number/ng DNA,TelomeScan (OBP-401); CDV 0.8 uM,1.890E+08 copy number/ng DNA
same,"E1A copy number, % (relative to 0 uM)",TelomeScan (OBP-401); CDV 4 uM,100.62%
same,E1A copy number/ng DNA,TelomeScan (OBP-401); CDV 4 uM,2.285E+08 copy number/ng DNA
same,"E1A copy number, % (relative to 0 uM)",TelomeScan (OBP-401); CDV 20 uM,70.19%
same,E1A copy number/ng DNA,TelomeScan (OBP-401); CDV 20 uM,1.594E+08 copy number/ng DNA
same,"E1A copy number, % (relative to 0 uM)",TelomeScan (OBP-401); CDV 100 uM,21.83%
same,E1A copy number/ng DNA,TelomeScan (OBP-401); CDV 100 uM,4.957E+07 copy number/ng DNA
same,Viral E1A copy number,"TelomeScan (OBP-401); TelomeScan, H1299 cells, dose-dependent manner",reduced
same,Relative cell viability Ave.,"H1299 cells; CDV 0.01 μM, Table 4A",1.014
same,Relative cell viability Ave.,"H1299 cells; CDV 0.01 μM, Table 4B",0.992
same,Relative cell viability,"H1299 cells; CDV 0.01 μM, Table 4A",0.978 and 1.068 and 1.002 and 1.009
same,Relative cell viability,"H1299 cells; CDV 0.01 μM, Table 4B",0.970 and 1.010 and 0.999 and 0.990
same,Relative cell viability Ave.,"H1299 cells; CDV 0.06 μM, Table 4A",0.996
same,Relative cell viability Ave.,"H1299 cells; CDV 0.06 μM, Table 4B",0.985
same,Relative cell viability,"H1299 cells; CDV 0.06 μM, Table 4A",0.945 and 1.070 and 0.997 and 0.972
same,Relative cell viability,"H1299 cells; CDV 0.06 μM, Table 4B",0.950 and 1.019 and 0.990 and 0.981
same,Relative cell viability Ave.,"H1299 cells; CDV 0.32 μM, Table 3A",1.074
same,Relative cell viability Ave.,"H1299 cells; CDV 0.32 μM, Table 4A",1.020
same,Relative cell viability,"H1299 cells; CDV 0.32 μM, Table 3A",0.963 and 1.073 and 1.171 and 1.087
same,Relative cell viability,"H1299 cells; CDV 0.32 μM, Table 4A",0.977 and 1.068 and 1.001 and 1.032
same,Relative cell viability Ave.,"H1299 cells; CDV 1.6 μM, Table 3A",1.017
same,Relative cell viability Ave.,"H1299 cells; CDV 1.6 μM, Table 4A",1.030
same,Relative cell viability Ave.,"H1299 cells; CDV 1.6 μM, Table 4B",0.990
same,Relative cell viability,"H1299 cells; CDV 1.6 μM, Table 3A",0.970 and 1.043 and 1.110 and 0.945
same,Relative cell viability,"H1299 cells; CDV 1.6 μM, Table 4A",0.981 and 1.061 and 1.044 and 1.033
same,Relative cell viability,"H1299 cells; CDV 1.6 μM, Table 4B",0.984 and 0.996 and 0.983 and 0.997
same,Relative cell viability Ave.,"H1299 cells; CDV 8 μM, Table 3A",1.010
same,Relative cell viability Ave.,"H1299 cells; CDV 8 μM, Table 4A",0.989
same,Relative cell viability Ave.,"H1299 cells; CDV 8 μM, Table 4B",0.925
same,Relative cell viability,"H1299 cells; CDV 8 μM, Table 3A",0.912 and 1.037 and 1.043 and 1.047
same,Relative cell viability,"H1299 cells; CDV 8 μM, Table 4A",0.918 and 1.022 and 1.016 and 0.999
same,Relative cell viability,"H1299 cells; CDV 8 μM, Table 4B",0.913 and 0.935 and 0.928 and 0.923
same,Relative cell viability Ave.,"H1299 cells; CDV 40 μM, Table 3A",0.923
same,Relative cell viability Ave.,"H1299 cells; CDV 40 μM, Table 4A",0.695
same,Relative cell viability Ave.,"H1299 cells; CDV 40 μM, Table 4B",0.600
same,Relative cell viability,"H1299 cells; CDV 40 μM, Table 3A",1.004 and 0.919 and 0.876 and 0.894
same,Relative cell viability,"H1299 cells; CDV 40 μM, Table 4A",0.709 and 0.677 and 0.686 and 0.706
same,Relative cell viability,"H1299 cells; CDV 40 μM, Table 4B",0.588 and 0.574 and 0.628 and 0.609
same,Relative cell viability Ave.,"H1299 cells; CDV 200 μM, Table 3A",0.398
same,Relative cell viability Ave.,"H1299 cells; CDV 200 μM, Table 4A",0.199
same,Relative cell viability Ave.,"H1299 cells; CDV 200 μM, Table 4B",0.136
same,Relative cell viability,"H1299 cells; CDV 200 μM, Table 3A",0.401 and 0.420 and 0.362 and 0.411
same,Relative cell viability,"H1299 cells; CDV 200 μM, Table 4A",0.221 and 0.203 and 0.185 and 0.186
same,Relative cell viability,"H1299 cells; CDV 200 μM, Table 4B",0.135 and 0.128 and 0.145 and 0.134
same,Relative cell viability Ave.,"H1299 cells; CDV 1000 μM, Table 4A",0.037
same,Relative cell viability Ave.,"H1299 cells; CDV 1000 μM, Table 4B",0.015
same,Relative cell viability,"H1299 cells; CDV 1000 μM, Table 4A",0.033 and 0.043 and 0.036 and 0.037
same,Relative cell viability,"H1299 cells; CDV 1000 μM, Table 4B",0.021 and 0.013 and 0.012 and 0.015
same,toxicity of CDV itself,"H1299 cells; H1299 cells, high concentrations",toxic
same,"E1A copy number, % (relative to 0 μM)",[1]; CDV 0.16 μM,117.49%
same,E1A copy number/ng DNA,[1]; CDV 0.16 μM,6.152E+07 copy number/ng DNA
same,"E1A copy number, % (relative to 0 μM)",[1]; CDV 0.8 μM,95.65%
same,E1A copy number/ng DNA,[1]; CDV 0.8 μM,5.008E+07 copy number/ng DNA
same,"E1A copy number, % (relative to 0 μM)",[1]; CDV 4 μM,74.69%
same,E1A copy number/ng DNA,[1]; CDV 4 μM,3.911E+07 copy number/ng DNA
same,"E1A copy number, % (relative to 0 μM)",[1]; CDV 20 μM,32.83%
same,E1A copy number/ng DNA,[1]; CDV 20 μM,1.719E+07 copy number/ng DNA
same,"E1A copy number, % (relative to 0 μM)",[1]; CDV 100 μM,4.79%
same,E1A copy number/ng DNA,[1]; CDV 100 μM,2.509E+06 copy number/ng DNA
same,Viral E1A copy number,"[1]; wild-type AdV, H1299 cells, dose-dependent manner",reduced
